3 compounds from patent publication US9981940B2, “Aryl sulfide derivatives and aryl sulfoxide derivatives as acaricides and insecticides” (BAYER CROPSCIENCE AKTIENGESELLSCHAFT, priority 2013, dated 2018) can be followed below.

SMILES strings stand for the structures.

The subject of one series is Myzus persicae. Nature of the series: Myzus persicae spray test (MYZUPE). The format is in vivo. The following applies: after 6 days. The procedure: Myzus persicae—Spray Test (MYZUPE)
• Solvent: 78 parts by weight of acetone • 1.5 parts by weight of dimethylformamide • Emulsifier: 0.5 part by weight of alkylaryl polyglycol ether
To produce an appropriate active ingredient formulation, 1 part by weight of active ingredient is mixed with the specified amounts of solvent and emulsifier, and the concentrate is diluted to the desired concentration with emulsifier-containing water.
Discs of Chinese cabbage leaves (Brassica pekinensis) infested by all stages of the green peach aphid (Myzus persicae) are sprayed with an active ingredient formulation of the desired concentration.
After 6 days, the activity in % is determined 100% means that all the aphids have been killed; 0% means that none of the aphids have been killed.

The test system of a further series is Boophilus microplus. Nature of the series: Boophilus microplus injection test (BOOPMI Inj). The format is in vivo. The following applies: application rate of 20 μg/animal, assessed after 7 days by laying of fertile eggs. In outline: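 Engorged adult female ticks (5 per test) injected in the abdomen with 1 μl of compound solution in DMSO, then held in a climate-controlled room. Efficacy scored after 7 days from fertile egg laying, with 100% meaning no fertile eggs and 0% all eggs fertile.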

For the next series, the system named is Tetranychus urticae. Nature of the series: Tetranychus urticae spray test, OP-resistant (TETRUR). It counts as in vivo. To be noted: application rate of 500 g/ha, after 6 days; for pest or weed control at 500 g/ha: Tetranychus urticae, 144 h, read-out: efficacy. In outline:
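Mortality as % efficacy (0% = no mites killed) read 6 days after spraying. Formulation: active ingredient in acetone/dimethylformamide plus emulsifier, diluted with emulsifier-containing water, applied to Phaseolus vulgaris leaf discs carrying every life stage of OP-resistant spider mites.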

The subject of the next series is Phaedon cochleariae. Nature of the series: Phaedon cochleariae spray test (PHAECO). The format is in vivo. To be noted: application rate of 500 g/ha, after 7 days. A digest of the protocol:
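Chinese cabbage (Brassica pekinensis) leaf discs sprayed with acetone/DMF/emulsifier formulation diluted in emulsifier-containing water, dried, then populated with mustard beetle larvae. Efficacy scored after 7 days as % larvae killed (100% = all killed, 0% = none).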

Series [1] is described as follows: log P by HPLC (OECD Guideline 117), method [b] neutral range. The format is physicochemical. To be noted: HPLC; for chromatographic logP: reversed-phase C18 HPLC column, neutral range, pH 7.8. On the procedure: (§1) The log P values were determined analogously to OECD Guideline 117 (EC Directive 92/69/EEC) by HPLC (high-performance liquid chromatography) using reversed-phase columns (C 18), by the following methods:
[b] The LC-MS determination in the neutral range is effected at pH 7.8 with 0.001 molar aqueous ammonium hydrogencarbonate solution and acetonitrile as eluents; linear gradient from 10% acetonitrile to 95% acetonitrile.

Series [2] is described as follows: log P by HPLC (OECD Guideline 117), method [a] acidic range. The format is physicochemical. The following applies: for chromatographic logP: reversed-phase C18 HPLC column, acidic range. The procedure:
as §1
[a] The LC-MS determination in the acidic range is effected at pH 2.7 with 0.1% aqueous formic acid and acetonitrile (contains 0.1% formic acid) as eluents; linear gradient from 10% acetonitrile to 95% acetonitrile.

The next series deals with Lucilia cuprina. Nature of the series: Lucilia cuprina test (LUCICU). It counts as in vivo. The following applies: application rate of 100 ppm; L1 larvae; after 2 days. The procedure:
Lucilia cuprina Test (LUCICU)
• Solvent: dimethyl sulphoxide
To prepare an appropriate active ingredient formulation, 10 mg of active ingredient are mixed with 0.5 ml of dimethyl sulphoxide, and the concentrate is diluted with water to the desired concentration.
About 20 L1 larvae of the Australian sheep blowfly (Lucilia cuprina) are transferred into a test vessel containing minced horsemeat and the active ingredient preparation of the desired concentration.
After 2 days, the kill in % is determined 100% means that all the larvae have been killed; 0% means that none of the larvae have been killed.

The test system of another series is Meloidogyne incognita. Nature of the series: Meloidogyne incognita test (MELGIN). It counts as in vivo. The following applies: application rate of 20 ppm; after 14 days, by formation of galls. On the procedure: Meloidogyne Incognita Test (MELGIN)
• Solvent: 125.0 parts by weight of acetone
To produce an appropriate active ingredient formulation, 1 part by weight of active ingredient is mixed with the specified amounts of solvent and the concentrate is diluted to the desired concentration with water.
Vessels are filled with sand, active ingredient solution, an egg/larvae suspension of the southern root-knot nematode (Meloidogyne incognita) and lettuce seeds. The lettuce seeds germinate and the plants develop. The galls develop on the roots
After 14 days, the nematicidal efficacy in % is determined by the formation of galls. 100% means that no galls have been found; 0% means that the number of galls on the treated plants corresponds to the untreated control.

For a further series, the system named is Spodoptera frugiperda. Description: Spodoptera frugiperda spray test (SPODFR). The following applies: application rate of 500 g/ha; after 7 days. The format is in vivo. The procedure: Spodoptera frugiperda—Spray Test (SPODFR)
• Solvent: 78.0 parts by weight of acetone • 1.5 parts by weight of dimethylformamide • Emulsifier: alkylaryl polyglycol ether
To produce an appropriate active ingredient formulation, 1 part by weight of active ingredient is dissolved using the specified parts by weight of solvent and made up with water containing an emulsifier concentration of 1000 ppm until the desired concentration is attained. To produce further test concentrations, the preparation is diluted with emulsifier-containing water.
Leaf discs of maize (Zea mays) are sprayed with an active ingredient formulation of the desired concentration and, after drying, populated with caterpillars of the armyworm (Spodoptera frugiperda).
After 7 days, the activity in % is determined 100% means that all caterpillars have been killed; 0% means that none of the caterpillars have been killed.

Setting [3] is: pH 2.7, HPLC method [a], read-out: logP[a].
[4] abbreviates: pH 2.7, HPLC, pH 2.7, read-out: log P[a].

For `COC1=CC(=O)N(c2cc([S+]([O-])CC(F)(F)F)c(C)cc2F)C1` (centres unmarked) [Example 311, 1-{2-Fluoro-4-methyl-5-[(2,2,2-trifluoroethyl)sulphinyl]phenyl}-4-methoxy-1,5-dihydro-2H-pyrrol-2-one], the efficacy with Myzus persicae (application rate of 500 g/ha) is given as 90%; with Boophilus microplus, 100%. For the same compound, the pest or weed control at 500 g/ha in the series with Tetranychus urticae came to 100%; in the series with Phaedon cochleariae (Phaedon cochleariae, 168 h, read-out: efficacy), 100%. The chromatographic logP in series [1] worked out at 1.84; in series [2] (setting [3]), 1.83; in [2] (setting [4]) it was 1.83.
`Cc1cc(F)c(-n2ncn(C(C)C)c2=O)cc1SCC(F)(F)F` [Example 4, 2-{2-Fluoro-4-methyl-5-[(2,2,2-trifluoroethyl)sulphanyl]phenyl}-4-isopropyl-2,4-dihydro-3H-1,2,4-triazol-3-one]: the “efficacy (kill)” value with Lucilia cuprina amounted to 80%. In the series with Tetranychus urticae, the pest or weed control at 500 g/ha was found to be 90%. In addition, the results for the chromatographic logP in series [1], in [2] (setting [3]) and in [2] (setting [4]) were 2.97, 2.82 and 2.82, respectively. In the series with Meloidogyne incognita, this compound returned a nematicidal efficacy of 90%.
`CCCn1c(OC)nn(-c2cc([S+]([O-])CC(F)(F)F)c(C)cc2F)c1=O` (centres unmarked) [Example 411]: the efficacy with Myzus persicae (application rate of 100 g/ha) was 90%; in the series with Boophilus microplus it was 100%; in the series with Tetranychus urticae, 100%; in the series with Phaedon cochleariae, 100%; in the series with Spodoptera frugiperda, 100%. For the same compound, the “logP[b]” value in [1] (method [b] neutral range) is listed as 2.41. The “logP[a]” value in series [2] (HPLC, method [a] acidic range) came out at 2.44.
